Molecules are shown by their SMILES. The source made the active and inactive calls. The rule behind the calls is not given here.

Test [1] deals with CT26. In words: cells. The conditions noted are these: Mus musculus, CT26, 48 h.
Test [2] has as its system CT26. In words: Induction of apoptosis in Wnt-dependent mouse CT26 cells assessed as viable cells at 10 uM incubated for 24 hrs by Annexin V-Alexa Fluor 647/PI staining based flow cytomtery (Rvb=70.7%). In kind it is functional. The following applies: read-out: Activity.
The test system of the next test is RKO. The test is described as follows: cells. The following applies: Homo sapiens, 48 h.
In the next test the test system is SW480. The test is described as follows: cells. The following applies: Homo sapiens, SW480, 48 h.
The next test concerns HEK293. The test is described as follows: cells. The following applies: Homo sapiens, HEK293, 48 h.
The target in test [3] is T1, Beta catenin-BCL9 (Mus musculus, UniProt Q02248+Q9D219).
T1 sequence (Q02248 whole entry): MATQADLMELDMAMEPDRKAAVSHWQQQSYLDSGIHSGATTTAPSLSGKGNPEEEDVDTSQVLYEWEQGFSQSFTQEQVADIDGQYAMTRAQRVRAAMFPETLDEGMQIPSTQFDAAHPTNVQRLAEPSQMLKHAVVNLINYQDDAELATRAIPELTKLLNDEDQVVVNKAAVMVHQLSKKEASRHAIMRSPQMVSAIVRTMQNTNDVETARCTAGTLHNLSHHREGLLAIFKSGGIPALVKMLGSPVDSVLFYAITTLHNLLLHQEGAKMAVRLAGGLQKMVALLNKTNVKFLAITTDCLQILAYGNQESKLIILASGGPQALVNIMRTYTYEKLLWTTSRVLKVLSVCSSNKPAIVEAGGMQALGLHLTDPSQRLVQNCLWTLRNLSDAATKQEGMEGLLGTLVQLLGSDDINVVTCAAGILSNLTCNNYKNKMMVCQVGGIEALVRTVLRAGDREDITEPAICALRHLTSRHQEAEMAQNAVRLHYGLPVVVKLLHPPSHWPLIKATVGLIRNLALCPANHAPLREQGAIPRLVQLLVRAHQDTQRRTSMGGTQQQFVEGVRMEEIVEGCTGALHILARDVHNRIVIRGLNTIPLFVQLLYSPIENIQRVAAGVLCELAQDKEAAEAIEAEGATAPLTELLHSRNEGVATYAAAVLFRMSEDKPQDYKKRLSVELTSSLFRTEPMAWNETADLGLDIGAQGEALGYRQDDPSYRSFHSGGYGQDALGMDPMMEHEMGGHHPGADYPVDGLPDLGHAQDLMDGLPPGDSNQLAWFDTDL
T1 sequence (Q9D219 whole entry): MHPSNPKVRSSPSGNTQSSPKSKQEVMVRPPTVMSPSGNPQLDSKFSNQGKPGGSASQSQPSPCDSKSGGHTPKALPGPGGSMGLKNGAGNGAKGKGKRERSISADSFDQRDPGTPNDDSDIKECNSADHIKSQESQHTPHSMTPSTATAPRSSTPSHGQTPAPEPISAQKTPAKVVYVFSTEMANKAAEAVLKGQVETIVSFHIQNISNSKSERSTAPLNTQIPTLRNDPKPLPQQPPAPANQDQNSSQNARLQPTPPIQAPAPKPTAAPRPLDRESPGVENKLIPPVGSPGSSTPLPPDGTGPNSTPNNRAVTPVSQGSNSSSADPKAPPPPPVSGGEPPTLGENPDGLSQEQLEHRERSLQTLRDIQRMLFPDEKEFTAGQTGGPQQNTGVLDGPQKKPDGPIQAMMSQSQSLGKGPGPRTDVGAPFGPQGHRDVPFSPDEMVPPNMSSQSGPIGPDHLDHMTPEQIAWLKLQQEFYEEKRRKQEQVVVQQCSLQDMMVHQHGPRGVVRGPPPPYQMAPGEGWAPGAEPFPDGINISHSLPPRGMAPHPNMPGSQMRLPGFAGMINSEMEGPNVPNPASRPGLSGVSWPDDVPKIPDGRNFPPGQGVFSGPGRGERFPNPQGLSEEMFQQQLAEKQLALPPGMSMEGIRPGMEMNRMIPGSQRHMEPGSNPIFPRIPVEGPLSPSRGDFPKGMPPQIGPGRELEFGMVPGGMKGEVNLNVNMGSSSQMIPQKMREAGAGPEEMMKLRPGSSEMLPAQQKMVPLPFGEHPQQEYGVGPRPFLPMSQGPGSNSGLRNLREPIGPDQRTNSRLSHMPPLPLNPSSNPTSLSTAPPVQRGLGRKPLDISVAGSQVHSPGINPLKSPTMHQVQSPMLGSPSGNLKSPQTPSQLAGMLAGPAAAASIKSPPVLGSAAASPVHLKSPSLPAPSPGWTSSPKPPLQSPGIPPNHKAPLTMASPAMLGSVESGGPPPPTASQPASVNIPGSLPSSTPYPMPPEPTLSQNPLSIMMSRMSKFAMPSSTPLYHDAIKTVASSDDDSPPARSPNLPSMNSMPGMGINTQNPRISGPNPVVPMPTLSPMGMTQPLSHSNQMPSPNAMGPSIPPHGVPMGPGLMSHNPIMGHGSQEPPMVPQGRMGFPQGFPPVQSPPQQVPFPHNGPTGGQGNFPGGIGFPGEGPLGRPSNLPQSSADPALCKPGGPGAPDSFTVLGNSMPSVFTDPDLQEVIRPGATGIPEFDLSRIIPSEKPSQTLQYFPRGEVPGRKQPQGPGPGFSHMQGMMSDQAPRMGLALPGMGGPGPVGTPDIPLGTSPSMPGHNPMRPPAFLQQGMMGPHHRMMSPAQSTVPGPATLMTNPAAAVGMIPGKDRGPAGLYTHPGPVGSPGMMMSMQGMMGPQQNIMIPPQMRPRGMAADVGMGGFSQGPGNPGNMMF
In words: Inhibition of beta-catenin/BCL9 protein-protein interaction in Wnt-dependent BCL9 knockdown mouse CT26 cells assessed as reduction in Axin2 expression level by qRT-PCR assay. In kind it is cell-based.

The test system of test [4] is A549. The test is described as follows: Antiproliferative activity against Wnt-independent human A549 cells assessed as cell growth inhibition at 40 uM incubated for 48 hrs by CellTiter-Glo assay. In kind it is functional, cell-based.
Test [5] deals with T1, Beta catenin-BCL9. The test is described as follows: Inhibition of beta-catenin/BCL9 protein-protein interaction in Wnt-dependent mouse CT26 cells assessed as reduction in Axin2 expression level by qRT-PCR assay. Type of test: cell-based.
Another test concerns HCT-116. The test is described as follows: cells. The following applies: Homo sapiens, HCT-116, 48 h.
For test [6], the system named is A549. The test is described as follows: cells. The following applies: Homo sapiens, A549, 48 h.

On to `CC(C)c1ccc(-c2cccc(S(=O)(=O)N3CCCC(c4cccc(OC(C)(C)C(=O)NS(=O)(=O)c5ccc(C(F)(F)F)cc5)c4)C3)c2)cc1` (configuration not stated), for which the half-inhibitory concentration (IC50) was 4.74 µM in the test on CT26 [1]; > 40 µM in the test on RKO; 16.2 µM with SW480; > 40 µM with HEK293; 51.6 µM on Beta catenin-BCL9 [3]; 0.66 µM at Beta catenin-BCL9 [5]. In addition, the figures for the 50% inhibitory concentration (IC50) in the test on HCT-116 and in the test with A549 [6] were 9.25 µM and > 40 µM, respectively. In addition, the viability at 10 µM with CT26 [2] is 43.8%. For the same compound, the result in the test on A549 [4] was inactive.

For `O=C1[C@H](Cc2ccc(O)cc2)N2C(=O)CCN(C(=O)NCc3ccccc3)[C@H]2CN1Cc1cccc2ccccc12`, the concentration for half-maximal inhibition (IC50) in the test on CT26 [1] was determined as 18.6 µM; in the test with RKO, 77.5 µM; in the test on SW480, 8.43 µM; in the test on HEK293, 75.4 µM; at Beta catenin-BCL9 [5], 4.62 µM; with HCT-116, 32.7 µM. Besides, in the test with A549 [6], the half-inhibitory concentration (IC50) came to 54.1 µM.
